According to patent US20230047208A1, “RNA Splicing Modulation” (The General Hospital Corporation, priority 2020, published 2023):

Legend:
ELP1 exon 20 [1] = conditions: cited from earlier work
ELP1 exon 20 [2] = conditions: cited from earlier work; remark: listed apart in the source
CFTR channel = assay: CFTR functional assessment, short circuit current (Ussing chamber) in CFBE cells stably expressing c.2988G>A; type: cell-based, human; conditions: CFBE c.2988G>A, Compound (I) treated cells, 10 μM ivacaftor acute, apical side
Description: WT CFTR-EMG-i14-i18, CFTR-EMG-i14-i18 harboring c.2988G>A, Flp-In-CFBE, and Flp-In-293 cells stably expressing WT-EMG and c.2988G>A EMG were generated. Both Flpin-293 and Flp-In-CFBE cells lack endogenous CFTR expression (CFBE41o-) and contain a single Flp recombinase target site. Co-transfection of EMG plasmid with pOG44 (a plasmid encoding Flp recombinase) allowed for genomic integration at the FRT site. Hygromycin was used for stable cell selection.
Assessment of CFTR channel function and response to Compound (I) was performed in CFBEs stably expressing c.2988G>A. Briefly, CFBE stable cell lines were plated on snapwell filters. When transepithelial resistance reached ˜200Ω (˜ 5-7 days) as measured using Voltammeter (Physiologic Instruments), cells were treated with Compound (I) at varying doses (0.3 μM to 10 μM) for next 3 days. Filters were mounted in Ussing chambers (Physiological Instruments). A high chloride solution was added to the basolateral chamber and a low chloride solution was added to the apical chamber. After equilibration of currents, 10 μM forskolin (Selleckchem) was added to the basolateral side to activate CFTR channels via cAMP signaling. Currents were allowed to plateau, followed by acute addition of 10 μM ivacaftor at apical side for CFTR potentiation (Selleckchem). Inhibition of CFTR was performed using 10 μM Inh-172 (Selleckchem) added to the apical chamber.
The ability of Compound (I) to rescue chloride channel function was also assessed. CF bronchial epithelial (CFBE) cell lines was generated to stably express the splicing mutation c.2988G>A. Cells were grown in monolayers on filters and treated with increasing doses of Compound (I) (0.3 μM-10 μM) or DMSO for 3 days. Chloride channel function was assessed by measuring short circuit current (Isc) on treated CFBE cells. Forskolin was added to initiate CFTR channel activity via cAMP-mediated signaling, with further channel activation by Ivacaftor and inhibition with Inh-172, a CFTR-specific inhibitor (FIG. 9C, representative Isc tracing). CFTR-specific change in current (ΔIsc±SD) allows for measurement of chloride channel function (FIG. 9C). […] Significant recovery of CFTR function (˜3 fold) was observed following treatment with Compound (I) at 1, 3, 6, and 10 μM for 3 days, with a maximal increase in CFTR function achieved using 3 μM of Compound (I) (ΔIsc=37.168±4.32 μA/cm^2, FIG. 9C).

SMILES	doses needed to achieve inclusion of Exon 20 in vivo (ELP1 exon 20 [1])	Percent Spliced In (PSI) change for ELP1 exon 20 splicing (ELP1 exon 20 [2]; RNA sequencing after kinetin treatment)	additional exon-usage differences in response to kinetin (ELP1 exon 20 [2]; RNA sequencing)	usage differences that induced skipping of the middle exon (ELP1 exon 20 [2]; RNA sequencing)	usage differences that promoted inclusion of the middle exon (ELP1 exon 20 [2]; RNA sequencing)	improvement in CFTR function on acute addition of Ivacaftor (CFTR channel)
c1coc(CNc2ncnc3nc[nH]c23)c1 [kinetin, 6-furfurylaminopurine]	extremely high doses are necessary	0.57	42	31	11	
CC(C)(C)c1cc(C(C)(C)C)c(NC(=O)c2c[nH]c3ccccc3c2=O)cc1O [Ivacaftor, reference compound]						~2 fold
